Assay results published in PubChem BioAssay AID2060511 (Molecular Pharmacology Branch, DTP, NCI, 2025).

Test system: 422866-222-R5-J1-PDC spheroids with HUVEC/MSC, viability
Experiment: Anticancer human tumor 422866-222-R5-J1-PDC patient-derived pancreatic adenocarcinoma cell line growth inhibition [GQUAD]
Conditions: for IC50: curve of first compound; for viability, T/C: stronger effect = lower value
Method in brief: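 Multi-cell-type spheroids of tumor cells with HUVEC and mesenchymal stem cells, treated with drug combinations. Concentrations descend in half-log steps from near clinical Cmax, or from 10 microM where Cmax is unknown; viability read-out.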

[1] = second compound 0.0316 µM, first compound 0.0316 µM
[2] = second compound 0.0316 µM, first compound 0.1 µM
[3] = second compound 0.0316 µM, first compound 0.316 µM
[4] = second compound 0.0316 µM, first compound 1 µM
[5] = second compound 0.0316 µM, first compound 3.16 µM
[6] = second compound 0.0316 µM, first compound 10 µM
[7] = second compound 0.1 µM, first compound 0.0316 µM
[8] = second compound 0.1 µM, first compound 0.1 µM
[9] = second compound 0.1 µM, first compound 0.316 µM
[10] = second compound 0.1 µM, first compound 1 µM
[11] = second compound 0.1 µM, first compound 3.16 µM
[12] = second compound 0.1 µM, first compound 10 µM
[13] = second compound 0.316 µM, first compound 0.0316 µM
[14] = second compound 0.316 µM, first compound 0.1 µM
[15] = second compound 0.316 µM, first compound 0.316 µM
[16] = second compound 0.316 µM, first compound 1 µM
[17] = second compound 0.316 µM, first compound 3.16 µM
[18] = second compound 0.316 µM, first compound 10 µM
[19] = second compound 1 µM, first compound 0.0316 µM
[20] = second compound 1 µM, first compound 0.1 µM
[21] = second compound 1 µM, first compound 0.316 µM
[22] = second compound 1 µM, first compound 1 µM
[23] = second compound 1 µM, first compound 3.16 µM
[24] = second compound 1 µM, first compound 10 µM
[25] = second compound 3.16 µM, first compound 0.0316 µM
[26] = second compound 3.16 µM, first compound 0.1 µM
[27] = second compound 3.16 µM, first compound 0.316 µM
[28] = second compound 3.16 µM, first compound 1 µM
[29] = second compound 3.16 µM, first compound 3.16 µM
[30] = second compound 3.16 µM, first compound 10 µM
[31] = second compound 10 µM, first compound 0.0316 µM
[32] = second compound 10 µM, first compound 0.1 µM
[33] = second compound 10 µM, first compound 0.316 µM
[34] = second compound 10 µM, first compound 1 µM
[35] = second compound 10 µM, first compound 3.16 µM
[36] = second compound 10 µM, first compound 10 µM
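Further: spheroids exposed to compounds for seven days before reading.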
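Wherever viability, T/C is given: percent viability relative to DMSO vehicle control taken as 100%.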

With `CCCS(=O)(=O)Nc1ccc(F)c(C(=O)c2c[nH]c3ncc(-c4ccc(Cl)cc4)cc23)c1F` + CN(C)c1ccc(Nc2c3ccc(NC(=O)CCN4CCCC4)cc3nc3cc(NC(=O)CCN4CCCC4)ccc23)cc1 the IC50 (second compound 0.0316 µM) was > 10 µM, the IC50 (second compound 0.1 µM) was > 10 µM and the IC50 (second compound 0.316 µM) was > 10 µM. For the same compound, the IC50 (second compound 1 µM) was > 10 µM, the IC50 (second compound 3.16 µM) was > 10 µM and the IC50 (second compound 10 µM) was > 10 µM. It also gave a viability, T/C [1] of 95.8%, a viability, T/C [2] of 117% and a viability, T/C [3] of 121%. For the same compound, the viability, T/C [4] was 136%, the viability, T/C [5] was 164% and the viability, T/C [6] was 130%. The viability, T/C [7] was 112%, the viability, T/C [8] was 91.6% and the viability, T/C [9] was 112%. The viability, T/C [10] was 137%, the viability, T/C [11] was 203% and the viability, T/C [12] was 128%. For the same compound, the viability, T/C [13] was 98%, the viability, T/C [14] was 108% and the viability, T/C [15] was 122%. For the same compound, the viability, T/C [16] was 143%, the viability, T/C [17] was 158% and the viability, T/C [18] was 127%. For the same compound, the viability, T/C [19] was 74.3%, the viability, T/C [20] was 88.3% and the viability, T/C [21] was 113%. It also gave a viability, T/C [22] of 112%, a viability, T/C [23] of 196% and a viability, T/C [24] of 130%. For the same compound, the viability, T/C [25] was 83.8%, the viability, T/C [26] was 97.7% and the viability, T/C [27] was 97%. For the same compound, the viability, T/C [28] was 157%, the viability, T/C [29] was 189% and the viability, T/C [30] was 154%. For the same compound, the viability, T/C [31] was 90.3%, the viability, T/C [32] was 90.2% and the viability, T/C [33] was 123%. For the same compound, the viability, T/C [34] was 131%, the viability, T/C [35] was 129% and the viability, T/C [36] was 153%.
With `CCCS(=O)(=O)Nc1ccc(F)c(C(=O)c2c[nH]c3ncc(-c4ccc(Cl)cc4)cc23)c1F` + Cc1[nH]c2ccc(F)cc2c1-c1nc2c3cccnc3c3ncccc3c2[nH]1 the IC50 (second compound 0.0316 µM) was 0.559 µM, the IC50 (second compound 0.1 µM) was 1.02 µM and the IC50 (second compound 0.316 µM) was 1.1 µM. For the same compound, the IC50 (second compound 1 µM) was 0.591 µM, the IC50 (second compound 3.16 µM) was 0.293 µM and the IC50 (second compound 10 µM) was 0.139 µM. For the same compound, the viability, T/C [1] was 114%, the viability, T/C [2] was 93.4% and the viability, T/C [3] was 61.5%. The viability, T/C [4] was 37.4%, the viability, T/C [5] was 34.5% and the viability, T/C [6] was 36.7%. The viability, T/C [7] was 110%, the viability, T/C [8] was 88.5% and the viability, T/C [9] was 61.4%. It also gave a viability, T/C [10] of 52.4%, a viability, T/C [11] of 40.6% and a viability, T/C [12] of 32.3%. It also gave a viability, T/C [13] of 134%, a viability, T/C [14] of 95.6% and a viability, T/C [15] of 75.6%. It also gave a viability, T/C [16] of 43.8%, a viability, T/C [17] of 43.4% and a viability, T/C [18] of 29%. The viability, T/C [19] was 85.2%, the viability, T/C [20] was 90.3% and the viability, T/C [21] was 63.1%. For the same compound, the viability, T/C [22] was 41.5%, the viability, T/C [23] was 38.1% and the viability, T/C [24] was 37%. It also gave a viability, T/C [25] of 67.3%, a viability, T/C [26] of 52.8% and a viability, T/C [27] of 53.1%. For the same compound, the viability, T/C [28] was 45.2%, the viability, T/C [29] was 43% and the viability, T/C [30] was 41.9%. The viability, T/C [31] was 58.2%, the viability, T/C [32] was 50.8% and the viability, T/C [33] was 47.5%. For the same compound, the viability, T/C [34] was 50.3%, the viability, T/C [35] was 43.2% and the viability, T/C [36] was 49.9%.
